From patent US10751379B2, “Method for preparing anti-obesity composition by using astringent persimmons and mandarin peels” (INDUSTRY ACADEMIC COORPERATION FOUNDATION DAEGU HAANY …, priority 2016, dated 2020)
Values after ≈ are worked out from the molar mass of the structure shown.

Tests used:
[1] = molecular target: T1, porcine pancreatic lipase (Sus scrofa, UniProt P00591); assay: Pancreatic lipase inhibition (p-NPB hydrolysis); type: biochemical; details: PCM 100-1000 μg/mL, orlistat 0.1-1 μg/mL, n=4
T1 construct: purchased Sigma-Aldrich Co. Type 2 (catalogue number not given)
T1 sequence (P00591 1-450): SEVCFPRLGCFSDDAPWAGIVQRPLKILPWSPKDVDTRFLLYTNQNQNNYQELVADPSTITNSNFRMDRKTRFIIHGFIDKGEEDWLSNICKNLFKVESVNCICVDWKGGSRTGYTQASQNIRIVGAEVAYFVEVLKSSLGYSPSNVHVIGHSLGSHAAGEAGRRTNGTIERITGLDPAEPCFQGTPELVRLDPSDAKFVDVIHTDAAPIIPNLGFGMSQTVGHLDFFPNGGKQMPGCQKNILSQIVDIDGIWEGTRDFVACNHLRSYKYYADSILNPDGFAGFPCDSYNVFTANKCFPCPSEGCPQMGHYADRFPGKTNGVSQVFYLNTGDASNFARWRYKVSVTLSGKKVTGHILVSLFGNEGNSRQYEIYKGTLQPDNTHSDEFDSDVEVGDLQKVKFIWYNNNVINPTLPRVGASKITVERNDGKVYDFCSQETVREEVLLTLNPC

[2] = system: HFD-induced obesity in mice; assay: Serum lipid profiles in HFD-induced obesity mice, 6 weeks; type: in vivo, ICR mice; details: Orlistat orally daily for 6 weeks
Protocol: Male healthy 4-week-old ICR mice (about 30-32 g) were purchased from Orient (Gyeonggi-do, Korea). Each mouse was kept at room temperature (22±3° C.) and humidity (55±5%) with a 12-h light/dark cycle. The experiments were approved by the Ethics Committee of Animal Experimentation of the University of Daegu Haany. The mice were allowed free access to laboratory pellet chow and water ad libitum. After adaptation (1 week), all experimental mice except normal mice (n=8) were fed with 60% high-fat diet (HFD; Diet 12492, Research Diets, Inc., 105 New Brunswick, N.J., USA) for 5 days to adapt to a feed. Thereafter, ICR mice (n=32) fed 60% HFD were randomly divided into four groups (HFD control group, orlistat group, and two PCM treatment groups (50 and 200 mg/kg/day))(in each group n=8). The normal group is supplied with a normal feed and the rest of the groups are supplied with 60% HFD until the end of experiment. The normal and HFD control groups were given water using a stomach tube, while the drug treatment groups were orally given Orlistat or PCM daily using a stomach tube for 6 weeks. After administration for 6 weeks, each mouse was sacrificed after fasting for 12 hours. The blood was immediately centrifuged for 10 minutes at 4° C. Serum triglyceride and total cholesterol were conducted spectrophotometrically using commercially available kits (Wako Pure Chemical Industries, Ltd., Osaka, Japan). HDL-cholesterol is measured using a commercial kit from Asan Pharm Co., Ltd. (Hwaseong-si, Korea, Cat AM203). LDL-cholesterol levels are calculated though TG, TC and HDL levels, and the following formula.

[3] = system: HFD-induced obesity in mice; assay: Body weight and visceral fat in HFD-induced obesity mice, 6 weeks; type: in vivo, ICR mice
Protocol: Male healthy 4-week-old ICR mice (about 30-32 g) were purchased from Orient (Gyeonggi-do, Korea). Each mouse was kept at room temperature (22±3° C.) and humidity (55±5%) with a 12-h light/dark cycle. […] The mice were allowed free access to laboratory pellet chow and water ad libitum. After adaptation (1 week), all experimental mice except normal mice (n=8) were fed with 60% high-fat diet (HFD; Diet 12492, Research Diets, Inc., 105 New Brunswick, N.J., USA) for 5 days to adapt to a feed. Thereafter, ICR mice (n=32) fed 60% HFD were randomly divided into four groups (HFD control group, orlistat group, and two PCM treatment groups (50 and 200 mg/kg/day))(in each group n=8). The normal group is supplied with a normal feed and the rest of the groups are supplied with 60% HFD until the end of experiment. The normal and HFD control groups were given water using a stomach tube, while the drug treatment groups were orally given Orlistat or PCM daily using a stomach tube for 6 weeks. After administration for 6 weeks, each mouse was sacrificed after fasting for 12 hours. The blood was immediately centrifuged for 10 minutes at 4° C.

pancreatic lipase enzyme = molecular target: T2, pancreatic lipase enzyme (Homo sapiens, UniProt P16233); details: background statement; cited from earlier work
T2 sequence (P16233 17-465): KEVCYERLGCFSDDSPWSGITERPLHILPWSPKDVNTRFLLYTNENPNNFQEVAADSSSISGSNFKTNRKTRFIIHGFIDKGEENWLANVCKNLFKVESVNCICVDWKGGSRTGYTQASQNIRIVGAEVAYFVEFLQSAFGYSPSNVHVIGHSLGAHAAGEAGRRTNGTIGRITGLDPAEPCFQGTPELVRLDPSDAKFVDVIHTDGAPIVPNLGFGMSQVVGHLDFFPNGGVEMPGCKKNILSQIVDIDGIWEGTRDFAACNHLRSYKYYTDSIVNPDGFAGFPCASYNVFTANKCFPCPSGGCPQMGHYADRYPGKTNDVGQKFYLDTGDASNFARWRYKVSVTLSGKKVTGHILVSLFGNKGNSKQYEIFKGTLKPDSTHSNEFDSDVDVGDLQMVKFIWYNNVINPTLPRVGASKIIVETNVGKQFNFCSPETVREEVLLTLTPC

[4] = DPPH radical inhibition (antioxidant activity); type: biochemical; details: 60 μM DPPH, 30 minutes at 25° C., 540 nm
Protocol: The ascorbic acid (standard sample) was prepared for eight concentrations (0.5, 1, 2, 5, 10, 20, 50, and 200 μg/mL). The reaction mixture was stored in the dark at 25° C. for 30 minutes. The optical density was determined using a microplate reader (M200 PRO, Tecan, Austria). The mixture was measured spectrophotometrically using 540 nm. The antioxidant activity of each sample was expressed in terms of IC50 (micromolar concentration required to inhibit DPPH radical formation by 50%, calculated from the log-dose inhibition curve). Antioxidant activity was expressed in terms of IC50, and a lower IC50 value corresponds to a large inhibition. The radical scavenging activity was calculated using the following formula. DPPH radical scavenging activity (%)=[1(Asample/Ablank)]×100

ABTS radical inhibition = type: biochemical; details: 15 minutes at room temperature in the dark, 750 nm
Protocol: ABTS inhibition of the different extracts was measured according to the modified method of Park et al. ABTS stock solution was dissolved in water to 7.4 mM concentration. The ABTS radical cation (ABTS) was produced by reacting ABTS stock solution with 2.45 mM potassium persulfate and allowing the mixture to stand for 14 hours at room temperature in the dark. The ABTS solution was diluted with ethanol to obtain an absorbance of 0.70±0.02 at 750 nm. After adding diluted ABTS solution to PCM solution, the mixture was left standing at room temperature for 15 minutes in the dark. The ascorbic acid (standard sample) was prepared for eight concentrations (0.5, 1, 2, 5, 10, 20, 50, and 200 μg/mL). The absorbance at 750 nm was measured using a microplate reader (M200 PRO, Tecan, Austria). The blank was prepared in the same manner, except that distilled water was used instead of the sample. The radical scavenging activity was calculated using the following formula. ABTS radical scavenging activity (%)=[1(Asample/Ablank)]×100

[5] = Orlistat orally daily for 6 weeks

Structure (SMILES) | lipase inhibition versus dose (FIG. 2) [1] | LDL-cholesterol level ([2]; calculated from TG, TC, HDL) | TC level ([2]; serum) | TG level ([2]; serum) | Weight Amount of change [3, 5] | Weight Final [3, 5] | visceral fat weight compared with HFD control mice ([3]; Orlistat, 6 weeks) | prevention of absorption of dietary fat (pancreatic lipase enzyme) | side effects (pancreatic lipase enzyme) | IC50 of DPPH inhibition [4] | IC50 value against the ABTS (ABTS radical inhibition)
CCCCCCCCCCC[C@@H](C[C@@H]1OC(=O)[C@H]1CCCCCC)OC(=O)[C@H](CC(C)C)NC=O [Orlistat] | did not rise at least a certain concentration | at the same level as normal food-supplied mice | at the same level as normal food-supplied mice | at the same level as normal food-supplied mice | 8.21 ± 1.82 g/6 weeks | 44.92 ± 1.62 g | significantly decreased | approximately 30% | severe gastrointestinal side effects |  | 
O=C1O[C@H]([C@@H](O)CO)C(O)=C1O [ascorbic acid] |  |  |  |  |  |  |  |  |  | 1.26 ± 0.02 mg/L | 2.27 ± 0.19 mg/L (≈ 12.9 µM)
